Bounds are passed on as bounds.

One data set relates to HBsAg secretion. Nature of the data set: Inhibition of HBsAg secretion (ELISA) in HepG2.2.15 cells. Particulars: Hepatitis B virus, HepG2.2.15, read-out: Hbs Ag IC50. It counts as cell-based. The source says: (§1) The chromosome of HepG2.2.15 cells integrates a complete HBV genome and stably expresses viral RNA and protein. HepG2.2.15 cells can secrete mature hepatitis B virus particles and HBsAg into culture medium. Virus particles DNA and HBsAg secreted by HepG 2.2.15 cells can be quantified by q-PCR and ELISA, and the effects of compounds on viral replication and HBsAg secretion can be detected.
HepG 2.2.15 cells were inoculated with 8,000 per cell to 96-well cell culture plates in duplicate, and were cultured for 3 days until the cells grew to full-hole. Cells were treated with 4-fold serial dilutions of compounds for 10 days, and were given alternately every other day. The final concentration of DMSO in all pores was 0.5% and DMSO was used as a drug-free control. The supernatant was collected for quantitative detection of HBsAg on day 11.
The level of HBsAg secreted by the compound after treatment is detected by ELISA method, and the method uses a hepatitis B surface antigen diagnostic kit (Shanghai Kehua Biotech Co., Ltd. S10910113). 25 μL of the supernatant to be assayed (PBS was diluted to 75 μL) was added to per well of the ELISA plate, positive control and negative control kit were set. ELISA plate was blocked with a cover paper, and incubated at 37° C. for 60 minutes. The ELISAplate was taken out, the seal was teared off, and 50 μL of enzyme conjugate was added to each well. The ELISA plate was oscillated on the shaker for 10 seconds, blocked with a cover paper and incubated at 37° C. for 30 minutes. The ELISA plate was taken out, the seal was teared off, and the ELISA plate was washed 5 times: each time the liquid in the hole was discarded, the washing liquid was filled into the holes, left to stand for 60 seconds, dried, and the liquid residue was patted on the absorbent paper. Immediately after the end of washing, a freshly prepared mixture of Developer A and Developer B was added to all wells: 100 μL per well. The ELISA plate was oscillated on the shaker for 10 seconds, blocked with a cover paper and incubated at 37° C. for 30 minutes. 50 μL of stop solution was added to all wells. Absorbance was read on the Envision plate reader at 450 nm. Concentration-HBsAg OD450 was processed using Graphpad Prism 5 software, and IC50 of Compounds Inhibiting Virus Replication was calculated by Four-parameter Nonlinear Regression Model.
In general terms: In an ELISA, binding on a coated surface is turned into a signal by an enzyme label.

The next data set concerns HBV DNA replication. Nature of the data set: Inhibition of HBV virus replication (HBV DNA in supernatant, qPCR) in HepG2.2.15 cells. It counts as cell-based. The following applies: Hepatitis B virus, 10 days treatment, supernatant day 11, qPCR.
Source text: as §1
HepG 2.2.15 cells were inoculated with 8,000 per cell to 96-well cell culture plates in duplicate, and were cultured for 3 days until the cells grew to full-hole. Cells were treated with 4-fold serial dilutions of compounds for 10 days, and were given alternately every other day. The final concentration of DMSO in all pores was 0.5% and DMSO was used as a drug-free control. The supernatant was collected for quantitative detection of HBV DNA on day 11.
Viral genomic DNA was detected by qPCR method, and HBV primers were as follows: • HBV-For-202, […] (SEQ ID NO:1); • HBV-Rev-315, […](SEQ ID NO:2).
The SYBR Premix Ex Taq II-Takara DRR081S kit was used, and 1 μL of cell culture supernatant was used as a template. A standard curve was made using a plasmid containing the HBV genome, and the viral copy number was calculated using the standard curve. Concentration-virus copy number was processed using Graphpad Prism 5 software, and IC50 of Compounds Inhibiting Virus Replication was calculated by Four-parameter Nonlinear Regression Model.
A general note: In qPCR the cycle at which signal appears reflects the starting amount.

The nature of data set [1]: Pharmacokinetic experiments in beagle dogs. The format is in vivo. The procedure:
Pharmacokinetic experiments of the compounds of the invention in beagle dogs (Body weight 10-12 kg, male, age 10-12 months, 3 per oral group, 3 per intravenous injection group) Test method:
Beagle was administered orally with 2.5 mg/kg or 5 mg/kg of the compound tested or intravenously injected with 1 mg/kg or 2 mg/kg of the compound tested.
After administration, venous blood was collected at time points (0.083, 0.25, 0.5, 1, 2, 4, 6, 8 and 24 hours) and collected in an anticoagulation tube with EDTA-K2. After liquid-liquid extraction, plasma samples were quantitatively analyzed by multiple reaction ion monitoring (MRM) on a triple quadrupole tandem mass spectrometer. Pharmacokinetic parameters were calculated using a noncompartmental method by WinNonLin 6.3 software.

One may read the IC50 as the concentration that gives 50% inhibition. For `COc1cc2c(cc1-c1ccco1)CN(C(C)C)n1cc(C(=O)O)c(=O)cc1-2` [Example 1, 9-(furan-2-yl)-6-isopropyl-10-methoxy-2-oxo-6,7-dihydro-2H-pyrido[2,1-a]phthalazine-3-carb oxylic acid], the figures for the concentration for half-maximal inhibition (IC50) with HBsAg secretion and with HBV DNA replication were 4.27 nM and 2.68 nM, respectively.
The corresponding values for `COc1cc2c(cc1-c1cccs1)CN(C(C)C)n1cc(C(=O)O)c(=O)cc1-2` [Example 2, 6-isopropyl-10-methoxy-2-oxo-9-(thiophen-2-yl)-6,7-dihydro-21H-pyrido[2,1-a]phthalazine-3-carboxylic acid] are 1.72 nM and 2.06 nM.
Taken in the same sequence, the figures for `COc1cc2c(cc1-c1nccs1)CN(C(C)C)n1cc(C(=O)O)c(=O)cc1-2` [Example 3, 6-isopropyl-10-methoxy-2-oxo-9-(thiazol-2-yl)-6,7-dihydro-2H-pyrido[2,1-a]phthalazine-3-carboxylic acid] were 3.26 nM and 1.71 nM.
The corresponding values for `COc1cc2c(cc1-c1cnn(C(C)C)c1)CN(C(C)C)n1cc(C(=O)O)c(=O)cc1-2` [Example 4, 6-isopropyl-9-(1-isopropyl-1H-pyrazol-4-yl)-10-methoxy-2-oxo-6,7-dihydro-2H-pyrido[2,1-a]phthalazine-3-carboxylic acid] are 9.6 nM and 3.81 nM.
In general, AUC(0-inf) refers to the area under the concentration-time curve extrapolated to infinity. A lower AUC(0-inf) goes with low exposure. In general, AUC(0-t) refers to the area under the concentration-time curve up to a stated or last time point. Read a high AUC(0-t) as high exposure. In general, Cmax refers to the peak of the concentration-time curve. A word on the clearance: it is a measure of how efficiently the substance is removed, as volume per time. Lower therefore signals inefficient removal. For the compound `COc1cc2c(cc1-c1cnn(C(F)F)c1)CN(C(C)C)n1cc(C(=O)O)c(=O)cc1-2` [Example 5, 9-(1-(difluoromethyl)-1H-pyrazole-4-yl)-6-isopropyl-10-methoxy-2-oxo-6,7-dihydro-2H-pyrido [2,1-a]phthalazine-3-carboxylic acid], in the data set with HBsAg secretion, the 50% inhibitory concentration (IC50) was 14.3 nM. This compound also registered an IC50 in the data set with HBV DNA replication of 7.3 nM. In addition, in data set [1] (PO 5 mg/kg vs IV 1 mg/kg), the F turned out to be 76.7%. In addition, in data set [1] (male, dog, plasma, IV, 1 mg/kg), the total exposure AUC(0-inf) was determined as 17400 ng·h/mL, the AUC(0-t) worked out at 16900 ng·h/mL, the maximum concentration (Cmax) came to 2170 ng/mL and the clearance was 0.955 mL/min/kg. In data set [1] (male, dog, plasma, PO, 5 mg/kg), the AUC(0-inf) stood at 66700 ng·h/mL, the AUC(0-t) was 63300 ng·h/mL and the Cmax was found to be 8710 ng/mL.
On to `COc1cc2c(cc1-c1cnn(C3CCC(F)(F)CC3)c1)CN(C(C)C)n1cc(C(=O)O)c(=O)cc1-2` [Example 7, 9-(1-(4,4-Difluorocyclohexyl)-1H-pyrazol-4-yl)-6-isopropyl-10-methoxy-2-oxo-6,7-dihydro-2H-pyrido[2,1-a]phthalazine-3-carboxylic acid], for which the figures for the half-inhibitory concentration (IC50) in the data set with HBsAg secretion and in the data set with HBV DNA replication were 6.73 nM and 1.76 nM, respectively.
Taken in the same sequence, the figures for `COc1cc2c(cc1-c1cnn(C3CC(C)(C)OC(C)(C)C3)c1)CN(C(C)C)n1cc(C(=O)O)c(=O)cc1-2` [Example 8, 6-isopropyl-10-methoxy-2-oxo-9-(1-(2,2,6,6-tetramethyltetrahydro-2H-pyran-4-yl)-1H-pyrazole-4-yl)-6,7-dihydro-2H-pyrido[2,1-a]phthalazine-3-carboxylic acid] were 6.03 nM and 6.26 nM.
As for `COc1cc2c(cc1-c1cnn(C(C)C)c1)CN(C(C)(C)C)n1cc(C(=O)O)c(=O)cc1-2` [Example 13, 6-(tert-butyl)-9-(1-isopropyl-1H-pyrazol-4-yl)-10-methoxy-2-oxo-6,7-dihydro-2H-pyrido[2,1-a]phthalazine-3-carboxylic acid], the IC50 was 0.97 nM in the data set with HBsAg secretion and 0.7 nM in the data set on HBV DNA replication.
Consider `COc1cc2c(cc1-c1cnn(C(C)C)c1)CN(C1CC1)n1cc(C(=O)O)c(=O)cc1-2` [Example 14, 6-cyclopropyl-9-(1-isopropyl-1H-pyrazol-4-yl)-10-methoxy-2-oxo-6,7-dihydro-2H-pyrido[2,1-a]phthalazine-3-carboxylic acid], for which the IC50 in the data set with HBsAg secretion and with HBV DNA replication was < 0.24 nM in each case.
With `COc1cc2c(cc1-c1cnn(C(C)C)c1)CN(C1CCC1)n1cc(C(=O)O)c(=O)cc1-2` [Example 15, 6-cyclobutyl-9-(1-isopropyl-1H-pyrazol-4-yl)-10-methoxy-2-oxo-6,7-dihydro-2H-pyrido[2,1-a]phthalazine-3-carboxylic acid], the IC50 came to 1.83 nM with HBsAg secretion and 2.1 nM in the data set on HBV DNA replication.
The corresponding values for `COc1cc2c(cc1-c1cnn(C3CC3)c1)CN(C(C)C)n1cc(C(=O)O)c(=O)cc1-2` [Example 16, 9-(1-cyclopropyl-1H-pyrazole-4-yl)-6-isopropyl-10-methoxy-2-oxo-6,7-dihydro-2H-pyrido[2,1-a]phthalazine-3-carboxylic acid] are 6.11 nM and 2.74 nM.
The corresponding values for `COc1cc2c(cc1-c1cnn(C3CCC3)c1)CN(C(C)C)n1cc(C(=O)O)c(=O)cc1-2` [Example 17, 9-(1-cyclobutyl-1H-pyrazole-4-yl)-6-isopropyl-10-methoxy-2-oxo-6,7-dihydro-2H-pyrido[2,1-a]phthalazine-3-carboxylic acid] are 4.07 nM and 2.82 nM.
Taken in the same sequence, the figures for `COc1cc2c(cc1-c1cnn(C3CCCC3)c1)CN(C(C)C)n1cc(C(=O)O)c(=O)cc1-2` [Example 18, 9-(1-cyclopentyl-1H-pyrazole-4-yl)-6-isopropyl-10-methoxy-2-oxo-6,7-dihydro-2H-pyrido [2,1-a]phthalazine-3-carboxylic acid] were 3.73 nM and 2.28 nM.
`COc1cc2c(cc1-c1cnn(C3CCOCC3)c1)CN(C(C)C)n1cc(C(=O)O)c(=O)cc1-2` [Example 19, 6-isopropyl-10-methoxy-2-oxo-9-(1-(tetrahydro-2H-pyran-4-yl)-1H-pyrazole-4-yl)-6,7-dihydro-2H-pyrido[2,1-a]phthalazine-3-carboxylic acid]: the IC50 in the data set on HBsAg secretion came out at 7.82 nM; with HBV DNA replication it was 3.98 nM.
